Drawing on article PMC12040169 (PLOS Biology, 2025), this text covers viability for 80 molecules.

The nature of this data set: in vitro. As to conditions: human, hela cells, % viability.

A word on the viability: it is a read-out of living cells in per cent, often relative to untreated cells. Turning to `CC(=O)c1cc(C(=O)N(C)CCOc2ccccc2)cs1` [CBK282560], the viability at 28.5 h, 10 µM was determined as 99.6%.

`CCn1c(=O)n(CC(=O)NCc2cccc(F)c2)c2cccnc21` [CBK283891]: the viability at 28.5 h, 10 µM worked out at 86.4%.

In the case of `CN(C)CCN(C)Cc1ccccc1O` [CBK261875], the viability at 28.5 h, 10 µM turned out to be 103%.

As for `CC1CCc2nn(CCNC(=O)C3CCCC3)c(=O)cc2C1` (centres unmarked) [CBK284484], the viability at 28.5 h, 10 µM is 91.1%.

Turning to `N#Cc1c(NC(=S)NC(=O)c2ccc(-c3cccc([N+](=O)[O-])c3)o2)sc2c1CCCC2` [CBK268471], the viability at 28.5 h, 10 µM came out at 92%.

For `CCCC/C=C/c1cnc(N)c(Nc2ccc(OC)cc2)n1` [CBK063890], the viability at 28.5 h, 10 µM was found to be 93.9%.

On to `Cc1cccc(-c2ccc(CC3(C(N)=O)CCN(C(=O)CCc4ccccc4)CC3)cc2)c1` [CBK285796], for which the viability at 28.5 h, 10 µM was determined as 110%.

As to `NNC(=O)c1cc(-c2ccc(-c3ccccc3)cc2)nc2ccc(Br)cc12` [CBK261760], the viability at 28.5 h, 10 µM worked out at 104%.

Turning to `c1ccc2oc(-c3cncc(NCCCN4CCOCC4)n3)cc2c1` [CBK066045], the viability at 28.5 h, 10 µM worked out at 92.9%.

Take `COc1cccc(C(=O)N2CCC(Cc3cccc(-c4cccs4)c3)(C(N)=O)CC2)c1` [CBK285781]: the viability at 28.5 h, 10 µM amounted to 97.8%.

As for `COc1ccc(C(=O)Nc2nc(OC)cnc2-c2ccsc2)cc1` [CBK145293], the viability at 28.5 h, 10 µM is 81.4%.

For the molecule `Cc1cccc(CN2CCC(N(C)Cc3nnc(C4CC4)n3C)C2)c1` (centres unmarked) [CBK305165], the viability at 28.5 h, 10 µM was 88.5%.

Regarding `COCC(O)CN(C)C(=O)c1ccc(Oc2cccc(Br)c2)nc1` (centres unmarked) [CBK304229], the viability at 28.5 h, 10 µM turned out to be 94%.

Turning to `C=Cn1cccc1C(=O)N1C2CCC1c1cnc3cc(C)nn3c1C2` (centres unmarked) [CBK284382], the viability at 28.5 h, 10 µM stood at 89.2%.

`Cc1ccc(Cn2nc(NC(=O)c3cccn3C)c3ccccc32)cc1` [CBK048214]: the viability at 28.5 h, 10 µM came to 97.4%.

As to `CC(=O)N1CCC2(CCCC[C@H]3CNCC[C@@H]3NC(=O)CNC2=O)CC1` [CBK292167], the viability at 28.5 h, 10 µM is 91.7%.

In the case of `COC(=O)c1ccsc1NS(=O)(=O)c1cc(Br)ccc1OC` [CBK039065], the viability at 28.5 h, 10 µM was 86.8%.

In the case of `CO/N=C(\C(=O)O)c1cn2cccnc2n1` [CBK262252], the viability at 28.5 h, 10 µM turned out to be 91.5%.

In the case of `Fc1cccc(-c2cncc(NCCc3c[nH]c4ccccc34)n2)c1` [CBK065288], the viability at 28.5 h, 10 µM was found to be 94.7%.

On to `O=C(Nc1cc(Oc2ccc(F)cc2)cc(Oc2cccnc2)c1)c1nn2c(C(F)(F)F)cc(-c3cccs3)nc2c1Cl` [CBK262568], for which the viability at 28.5 h, 10 µM came out at 93.1%.

As to `O=C(COc1cccc2ccccc12)Nc1cccnc1` [CBK263015], the viability at 28.5 h, 10 µM is 115%.

As to `Cc1ccn(CCNC(=O)CSc2nccc3ccccc23)n1` [CBK282678], the viability at 28.5 h, 10 µM stood at 104%.

As to `O=C(O)c1ccc(NC2=NS(=O)(=O)c3ccccc32)cc1` [CBK287084], the viability at 28.5 h, 10 µM stood at 84.4%.

On to `Cc1cc(C(F)F)n2nc(C(=O)Nc3ccc(S(=O)(=O)NC45CC6CC(CC(C6)C4)C5)cc3)nc2n1` [CBK266251], for which the viability at 28.5 h, 10 µM worked out at 96.2%.

On to `Cc1cc(NS(=O)(=O)c2ccc(C(C)C)cc2)n[nH]1` [CBK044646], for which the viability at 28.5 h, 10 µM turned out to be 106%.

For the molecule `COc1cccc(CN2C(=O)CC3(C2=O)C(=O)N(CC(=O)c2ccccc2)c2ccccc23)c1` (centres unmarked) [CBK075984], the viability at 28.5 h, 10 µM was found to be 88.9%.

Take `O=C(O)c1ccc(-n2nnnc2SCc2ccc(F)cc2)cc1` [CBK287229]: the viability at 28.5 h, 10 µM worked out at 95.8%.

Take `NS(=O)(=O)c1ccc(NC(=S)NC(=O)/C=C/c2ccco2)cc1` [CBK261066]: the viability at 28.5 h, 10 µM stood at 93%.

As for `CCc1nnc(NC(=O)c2cccc(F)c2)s1` [CBK273362], the viability at 28.5 h, 10 µM stood at 90.4%.

On to `CCOC(=O)c1cnn(C2CCCN(Cc3cn(C)nc3C)C2)c1` (centres unmarked) [CBK304044], for which the viability at 28.5 h, 10 µM was determined as 89.2%.

With `Cn1cc(NC(=O)C2CCCN(c3ncccn3)C2)cn1` (centres unmarked) [CBK304394], the viability at 28.5 h, 10 µM came to 108%.

As to `O=C(Nc1ccc(C(F)(F)F)cc1)C1CCCS1` (centres unmarked) [CBK006142], the viability at 28.5 h, 10 µM is 92.5%.

In the case of `CN(C)c1ccc(-c2cc(NCCc3ccncc3)ncn2)cc1` [CBK090849], the viability at 28.5 h, 10 µM came out at 94.2%.

In the case of `O=C(O)c1cc2ncc(-c3n[nH]cc3[N+](=O)[O-])cn2n1` [CBK269072], the viability at 28.5 h, 10 µM was 100%.

For the molecule `Cn1cc(C(CC(=O)O)C(=O)O)c2ccccc21` (centres unmarked) [CBK266231], the viability at 28.5 h, 10 µM is 98.9%.

As for `CCOc1ccc(-n2c(SCC(=O)Nc3cc(C(=O)O)ccc3Cl)nc3ccccc3c2=O)cc1` [CBK297512], the viability at 28.5 h, 10 µM was 109%.

With `Cc1ccc(OCCSc2nnc3[nH]c4ccccc4n23)cc1` [CBK267922], the viability at 28.5 h, 10 µM came to 96.2%.

On to `CC(C)N1CC[C@@H]2[C@H]1C(=O)NC[C@H](CCC(=O)NCc1ccc(F)cc1)N2C` [CBK289024], for which the viability at 28.5 h, 10 µM amounted to 91.4%.

Take `CCc1nccn1CCC(=O)NC1CCN(c2ccc(F)cc2)CC1` [CBK306760]: the viability at 28.5 h, 10 µM came out at 90.1%.

With `CC(C)CNc1nc(-c2cc(C(F)(F)F)cc(C(F)(F)F)c2)cnc1N` [CBK063708], the viability at 28.5 h, 10 µM was 85.7%.

With `COc1ccc(-c2ccc3nnc(SCc4cccnc4)n3n2)cc1` [CBK287680], the viability at 28.5 h, 10 µM amounted to 108%.

For the molecule `Cn1nccc1NS(=O)(=O)c1cc(C(F)(F)F)cc(C(F)(F)F)c1` [CBK062090], the viability at 28.5 h, 10 µM was 92.6%.

Take `Cc1nc2n(/N=C/c3ccc([N+](=O)[O-])cc3)c3ccccc3n2c1C#N` [CBK263107]: the viability at 28.5 h, 10 µM worked out at 88.4%.

Take `O=C(COc1cccnc1)N1CCCc2ccccc21` [CBK200258]: the viability at 28.5 h, 10 µM came out at 92.5%.

As to `COc1cc(F)ccc1-c1nc2ncccc2cc1NS(C)(=O)=O` [CBK085692], the viability at 28.5 h, 10 µM came to 89%.

Take `CC1CCCCC12NC(=O)N(Cc1nnc(-c3cccs3)o1)C2=O` (centres unmarked) [CBK306205]: the viability at 28.5 h, 10 µM came out at 82.9%.

For the molecule `COCCN(Cc1nnc(-c2cccs2)o1)C(C(=O)N1CCOCC1)c1ccccc1` (centres unmarked) [CBK295190], the viability at 28.5 h, 10 µM came out at 104%.

For `Cc1cc(OCC(O)CN2CCN(CCO)CC2)ccc1C(C)C` (centres unmarked) [CBK278254C], the viability at 28.5 h, 10 µM was determined as 89%.

On to `CCN1CCCCC1CNC(=O)Cn1nc(C)cc1C` (centres unmarked) [CBK282057], for which the viability at 28.5 h, 10 µM came to 98.6%.

For `NC1CCN(C(=O)Cn2ccc3ccnc(-c4cccs4)c32)CC1` [CBK284750], the viability at 28.5 h, 10 µM was determined as 85.7%.

With `CCOc1ccc(S(=O)(=O)N2CCCN(CC(C)C)CC2)c2cccnc12` [CBK062758], the viability at 28.5 h, 10 µM stood at 97%.

For `O=C(Nc1ccc(OCc2ccoc2)cc1C(=O)O)c1ccc(Cl)cc1Cl` [CBK003768D], the viability at 28.5 h, 10 µM turned out to be 87.5%.

With `Cc1ccn(CCC(=O)NC(Cc2ccsc2)c2nccs2)n1` (centres unmarked) [CBK285137], the viability at 28.5 h, 10 µM amounted to 92.5%.

In the case of `CC1CN(C(=O)OC(C)(C)C)CCN1c1nc2ccccc2nc1O` (centres unmarked) [CBK003877C], the viability at 28.5 h, 10 µM was 116%.

As to `Nc1nc(=O)n([C@H]2C[C@@H](O)[C@@H](CO)O2)cc1Br` [CBK201161], the viability at 28.5 h, 10 µM was determined as 97.1%.

For the molecule `Cc1noc(C)c1C(=O)N1CCc2ccccc2C1` [CBK200333], the viability at 28.5 h, 10 µM was found to be 103%.

For the molecule `Cc1nnc(SCc2nnc(-c3ccccc3)o2)n1Cc1ccccc1` [CBK269743], the viability at 28.5 h, 10 µM amounted to 92.2%.

Turning to `Cc1c(C)c2c(O)n(-c3ccccc3)nc2[nH]c1=O` [CBK287891], the viability at 28.5 h, 10 µM was determined as 89.3%.

For `CC(C)c1ccc(S(=O)(=O)NCCc2ccccc2)cc1` [CBK044426], the viability at 28.5 h, 10 µM is 94.1%.

As to `CN1CCC(N(C)C(=O)NCCCN2CCCC2=O)C1` (centres unmarked) [CBK156021], the viability at 28.5 h, 10 µM worked out at 92.3%.

Take `Cc1nc(CN2CCC(C(=O)c3ccc(F)cc3)CC2)cs1` [CBK149147]: the viability at 28.5 h, 10 µM was 103%.

Turning to `O=C(O)COCC(=O)N[C@H]1CCN2C(=O)c3ccc(Cl)cc3NC(=O)[C@H]12` [CBK289342], the viability at 28.5 h, 10 µM came out at 90%.

Take `O=C(O)CNC(=O)/C(=C\c1ccco1)NC(=O)c1ccccc1Cl` [CBK263967]: the viability at 28.5 h, 10 µM turned out to be 84.8%.

As for `O=S(=O)(Oc1ccc(-c2cnc3ccccc3n2)cc1)c1ccccc1` [CBK261104], the viability at 28.5 h, 10 µM came out at 93.4%.

Take `Cc1cc(NC(=O)CSc2nc3c(c(C(F)(F)F)n2)CCc2ccccc2-3)n(-c2ccccc2)n1` [CBK266086]: the viability at 28.5 h, 10 µM came to 106%.

For the molecule `O=C(NCc1cccc(OCC2CCCO2)c1)C1C2CCCCC21` (centres unmarked) [CBK281517], the viability at 28.5 h, 10 µM stood at 94.3%.

In the case of `O=C(N/N=C/c1ccccn1)c1n[nH]c2c1CCCC2` [CBK262882], the viability at 28.5 h, 10 µM stood at 90.8%.

In the case of `OC(COc1cccc(C(F)(F)F)c1)CN1CCN(c2nc(-c3ccccc3)ns2)CC1` (centres unmarked) [CBK074678], the viability at 28.5 h, 10 µM is 93%.

Turning to `COCCNc1nc(-c2cccc3ccccc23)cnc1N` [CBK063574], the viability at 28.5 h, 10 µM was found to be 99.1%.

On to `O=C(NC1CC1)c1cnoc1-c1ccccc1` [CBK154935], for which the viability at 28.5 h, 10 µM was determined as 106%.

Take `Cc1ccnc(NCn2nnc3ccccc32)c1` [CBK261116]: the viability at 28.5 h, 10 µM turned out to be 110%.

Take `O=[N+]([O-])c1ccc(Sc2nnc(COc3ccccc3)n2-c2ccccc2)nc1` [CBK265041]: the viability at 28.5 h, 10 µM worked out at 85.8%.

On to `CCOC(=O)CCNC(=O)C1(c2ccc(OC)cc2)CC1` [CBK161490], for which the viability at 28.5 h, 10 µM was found to be 87.3%.

For `CC(C(=O)NCCC1=CCCCC1)N1CCOC(Cn2cccn2)C1` (centres unmarked) [CBK305319], the viability at 28.5 h, 10 µM stood at 101%.

Take `CCCCOc1ccc(NC(=O)NCCC2=CCCCC2)cc1` [CBK043751]: the viability at 28.5 h, 10 µM amounted to 92.1%.

In the case of `Cc1ccc(S(=O)(=O)/N=C(\Nc2nc3ccccc3o2)NS(=O)(=O)c2ccc(C)cc2)cc1` [CBK266728], the viability at 28.5 h, 10 µM came out at 86%.

With `CC(=O)c1c(O)n(C2CCCCC2)c(=O)[nH]c1=O` [CBK287861], the viability at 28.5 h, 10 µM (bulk resorufin, single well) amounted to 91.9%.

On to `COc1ccc(-c2cncc(NCc3ccncc3)n2)cc1` [CBK065394], for which the viability at 28.5 h, 10 µM amounted to 111%.

As to `CCOC(=O)N1CCN(Cc2nc3c(c(=O)n(C)c(=O)n3C)n2Cc2ccccc2C)CC1` [CBK269325], the viability at 28.5 h, 10 µM came to 91.8%.

For the molecule `N#Cc1cc(SCCC(=O)O)c(N2CCOCC2)cc1C#N` [CBK269212], the viability at 28.5 h, 10 µM was 96.3%.
